Where no end group is shown, it is not given here.
Assays:
Erk1 = experiment: Western blot, phosphorylation of downstream substrate Erk1; assay type: cell-based, rat; details: dose dependent, compared with insulin, FIG. 10
Procedure: (§1) All experiments were carried out with H4 cells (Rat hepatoma cell line).Cells were pre-incubated with the compound K094A107 comprising an IRK-derived peptide (SEQ ID NO: 102)(10mM) or the corresponding controls for 3 hours ( one control was control -no treatment vehicle only, the second control was an irrelevant peptide derived from a non-A-region of a kinase), and with human recombinant insulin (100 nM), for 5 minutes. The cells were then lysed and cell lysates were subjected to Western Blot analysis followed by detection with ECL.
(§2) The membrane was incubated overnight with a primary polyclonal Anti-PhosphoPKB (phospho-serine 473 PKB)Ab, or with an antibody for IRK and then, after 3 washes with TBST, with secondary HRP antibody was added for 1 hour. In the second gel the membrane was incubated overnight with a primary monoclonal PhosphoTyrosine Kinase (PY99) Ab that labels phosphorylated tyrosine, and then after 3 washes with TBST, a secondary antibody was added for 1 hour.
(§3) A similar experiment was conducted with the difference being that the substrates tested were the substrates of the kinase associated signal transduction that are more downstream in the pathway: Erk1, and p38-MAP.

PKB = experiment: Western blot, phosphorylation of PKB in H4 cells; assay type: cell-based, rat; design: dose or concentration left out as unconfirmed; details: pre-incubated 3 hours with compound, phospho-serine 473, FIG. 9
Procedure: as §1, §2

IRK = experiment: Western blot, phosphorylation of IRK in H4 cells; assay type: cell-based, rat; design: dose or concentration left out as unconfirmed; details: pre-incubated 3 hours with compound, FIG. 9
Procedure: as §1, §2

p38-MAP = experiment: Western blot, phosphorylation of downstream substrate p38-MAP; assay type: cell-based, rat; details: dose dependent, compared with insulin, FIG. 10
Procedure: as §1, §2, §3

IRK substrates = experiment: Western blot of FIG. 10 as worded in the figure legend; assay type: cell-based, rat; details: FIG. 10 legend
Procedure: as §1, §3

adipose cells = experiment: Glucose uptake (3H-deoxy glucose) in fresh rat adipocytes; assay type: cell-based; details: for glucose uptake: 10 μM compound, fresh adipocytes, without insulin, vs control (vehicle)
Procedure: To 3 ml of KRBH buffer with 10 mg collagenase, 3g epididymal fat pad (from 2-3 male rats lightly ether anesthesised and then decapitated) was introduced. The fat was cut up with scissors. The pieces of fat were swirled and shaken in the collagenase solution in a 37° C. water bath, set at 100-150 repetitions/minute, for approximately 1 hour with swirling every 15 minutes while digesting and every 5 minutes towards the end. About 6 ml of buffer was then added to the vial. The content of the vial was gently squeezed through a 250 μ nylon mesh into a 50 ml plastic tube. The residual fat tissue was washed (the total volume for each wash was 15 ml): the tube was centrifuged whereby the adipose cells floated at the top of the liquid. The buffer was removed using a syringe with polyethylene capillary. Buffer was added to get 15 ml and clumps of adipose cells were broken up by gently mixing up and down. This procedure was repeated for a total of 4 centrifugations: 3 centrifugations at 1000 rpm with the last centrifugation at 2000 rpm. At this point, the buffer was removed. Fresh buffer was added to the cell suspension to form a cytocrit of 5-10%. The cells were rolled at 10 rpm at 37° C. for 1 hour.
50 μl 0.1% BSA in PBS was placed with compounds comprising IRK-derived peptides (final concentrations: 0.1-50 μM) or the peptide-vehicle in each 2 ml plastic tube in duplicates. 950 μl aliquots of the cell suspension were added to the tubes. After incubation for 1 hour at 37° C. in a roller (10 rpm), 200 ul of insulin was added to certain tubes to get final concentrations of 2.5-1000 uU/ml and than 200 μl of KRBH buffer containing 3H—Deoxy Glucose (approx. 1200 dpm/μl) was added to each tube. After 30 minutes incubation with the 3H-DOG and insulin at 37° C., 200 μl aliquots were transferred to microcentrifuge tubes containing 200 μl Dinonyl phthalate in duplicates. Cells were rapidly separated from the aqueous buffer by centrifugation at 10,000 g for 60 sec. The cells were isolated in the top layer of the dinonyl phthalate phase. The upper part of the tube (which contains the cells) was cut and transferred to scintillation tube. 4 ml of scintillation liquid was added.
Cell associated radioactivity was counted in a liquid scintillation beta counter.
Glucose-uptake was measured in fresh adipocytes, incubated with or without insulin (10 μ/ml) as described above, in the absence (vehicle) or the presence of 10 μM of a compound K094A107 (“107”) SEQ ID NO: 102; or K094A205 (“205”) (SEQ ID NO: 123), which was kept in a reducing environment (5 to 25 μM DTT) As a comparison the glucose uptake with insulin alone was determined.

male Sabra rats = experiment: Blood glucose in streptozotocin-induced diabetic rats; assay type: in vivo, rat; details: 10 mg/animal I.P., insulin 0.125 units/animal one hour later
Procedure: Diabetes was induced in male Sabra rats (150-200 gr) by I.P. injection of streptozotocin (Sigma, S0130) 60 mg/Kg dissolved in ph 4.5 saline (Biochemical and biophysical research comunications 197(3): 1549-1555 (1993)), which is known to destroy insulin-secreting pancreatic cells. After 2-7 days the rats were all diabetic, as determined by blood glucose level above 200 mg/dl which was measured with glucometer.
12 rats were divided into 3 groups, with homogenic blood glucose level, each consisting of 4 animals
Group I was administered with K094A107 (SEQ ID NO: 102) 10 mg/animal (I.P.) followed by administration of insulin 0.125 units/animal (low concentration of insulin that nearly doesn't give any significant decrease in blood glucose level) one hour later.
Group II was administered with K094A205 (A-region in SEQ ID NO: 123) 10 mg/animal (I.P.) followed by insulin 0.125 units/animal one hour later.
Group III served as control and was administered I.P. with vehicle (NAC/DMSO-DIDV) followed by insulin 0.125 units/animal one hour later.

neural crest cells = experiment: Emigration of neural crest cells from explanted neural primordia; assay type: cell-based, quail
Description: The procedure for explants of neural primordia is described in greater detail in Sela-Donefeld and Kalcheim (Development, 125(21): 4749-4762 (1999)), the teaching of which was incorporated herein by reference.
The trunk region of 16 somite-old quail embryos was separately sectioned at the level of the segmental plate plus the last 2 epithelial somite pairs. Neural primordia consisting of the neural tube and premigratory neural crest cells were isolated from adjacent tissues with 25% pancreatin in PBS, transferred to PBS supplemented with 5% newborn calf serum to stop enzymatic activity and washed in serum-free culture medium prior to explanation. The neural primordia were then explanted onto multi-well chamber slides that were pre-coated with fibronectin (50 μg/ml) for 1 hour. The neural primordia were cultured in 50 μl of either serum-free CHO—S-SFMII medium (GibcoBRL, USA) or condition medium of noggin producing-CHO cells, in the absence or presence of the tested compound, in a final concentration of 5 μM and incubated in a humid chamber for 24 hours. At the end of the incubation, the primordia were gently washed with PBS and fixed with Bouin's fluid, washed 3 times with PBS, dried and covered.

Question: “K094A107: compound comprising an IRK A-region derived peptide, N-myristylated and C-amidated (GGFTCHHVVRL-NH2; not fully specified (N-terminus))” was tested. Which “phosphorylation of ERK1” value (Erk1) did it give?
Answer: The value was “increase the phosphorylation of ERK1 and p38-MAP in a dose dependent manner”.

Question: And the “phosphorylation of PKB” value (PKB)?
Answer: The value was “able to increase phosphorylation”.

Question: And the “phosphorylation of IRK” value (IRK)?
Answer: The value was “able to increase phosphorylation”.

Question: And the “phosphorylation of p38-MAP” value (p38-MAP)?
Answer: Its value is “increase the phosphorylation of ERK1 and p38-MAP in a dose dependent manner”.

Question: And the “phosphorylation of IRK substrates” value (IRK substrates)?
Answer: The value was “decrease of phosphorylation of IRK substrates, in a dose dependent manner”.

Question: What about the “glucose uptake in combination with insulin” value (adipose cells; 10 μM compound in the presence of 10 μU/ml insulin) of the same molecule?
Answer: The value was “synergistic”.

Question: What about the glucose uptake (adipose cells) of the same molecule?
Answer: Its glucose uptake is “increase glucose uptake levels beyond the level of control glucose uptake”.

Question: What about the “glucose uptake, dose dependence” value (adipose cells; different concentrations of the compound (FIG. 6B)) of the same molecule?
Answer: Its value is “induce glucose uptake in a dose-dependent manner”.

Question: With “K094A205: compound comprising IRK A-region derived sequence, kept in a reducing environment (GGFTCHHVVRL; IRK)” as the molecule, how does the “time at which effect of a single administration on blood glucose was still notable” value (male Sabra rats) read?
Answer: The value was ≥ 24 h.

Question: What about the glucose blood levels (male Sabra rats; measured for 24 hours, vs vehicle plus insulin) of the same molecule?
Answer: Its glucose blood levels is “marked reduction”.

Question: What about the glucose uptake (adipose cells) of the same molecule?
Answer: The glucose uptake was “increase glucose uptake levels beyond the level of control glucose uptake”.

Question: Which “neural crest migration in the presence of noggin” value (neural crest cells; 5 μM compound, 24 hours, condition medium of noggin producing-CHO cells) does the source give for “K098A100: compound comprising ALK-3-derived A-region peptide (GLMRHENILGF; Alk3)” here?
Answer: The value was “overcomes this inhibition and induces neural crest migration”.

Question: What about the “number of migrating neural crest cells” value (neural crest cells; 5 μM compound, 24 hours, serum-free medium, absence of noggin) of the same molecule?
Answer: Its value is “the number of migrating cells is higher”.

B1: Noggin: specific inhibitor of BMP-4; condition medium of noggin producing-CHO cells (protein, UniProt Q13253 28-232, looked up)
Noggin: QHYLHIRPAPSDNLPLVDLIEHPDPIFDPKEKDLNETLLRSLLGGHYDPGFMATSPPEDRPGGGGGAAGGAEDLAELDQLLRQRPSGAMPSEIKGLEFSEGLAQGKKQRLSKKLRRKLQMWLWSQTFCPVLYAWNDLGSRFWPRYVKVGSCFSKRSCSVPEGMVCKPSKSVHLTVLRWRCQRRGGQRCGWIPIQYPIISECKCSC
modifications: CHO conditioned medium
notes: condition medium of noggin producing-CHO cells
Question: For B1, which neural crest migration (neural crest cells; noggin alone, no compound) is on record?
Answer: Its neural crest migration is “blocks the neural crest migration”.

— US20020137141A1, “Short peptides from the 'A-region' of protein kinases which selectively modulate protein kinase activity” (Children's Medical Center Corporation, priority 2000, published 2002)
